Each compound was assayed against T1, MeCP2-TBL1 interaction (MeCP2-SmBiT / TBL1-LgBiT) (Mus musculus, UniProt Q9QXE7) (assay: MeCP2-TBL1 NanoLuc luciferase complementation assay (cell-free, extracts of transfected HEK293 cells)). Details: primary screen of Asinex library, single well per compound.
T1 construct: expressed in transfected cells; crude lysate used as a cell-free assay
T1 sequence (Q9QXE7 166-527): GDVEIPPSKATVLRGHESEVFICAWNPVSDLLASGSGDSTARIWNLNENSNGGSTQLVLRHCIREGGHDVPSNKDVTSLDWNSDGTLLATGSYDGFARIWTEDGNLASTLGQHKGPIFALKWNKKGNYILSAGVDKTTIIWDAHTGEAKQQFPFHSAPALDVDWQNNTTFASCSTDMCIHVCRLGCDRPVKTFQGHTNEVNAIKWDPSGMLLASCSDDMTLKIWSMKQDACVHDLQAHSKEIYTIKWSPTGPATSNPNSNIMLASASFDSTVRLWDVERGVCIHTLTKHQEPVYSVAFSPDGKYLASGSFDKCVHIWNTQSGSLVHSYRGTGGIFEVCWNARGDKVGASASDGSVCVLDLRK
Type: binding, human
In short: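 Cell-free split NanoLuc: lysate of HEK293 cells co-expressing the MeCP2 C-terminal half-SmBiT and TBL1 WD domain-LgBiT, mixed 1:1 with furimazine. After 30 min at room temperature, luminescence was plate-median normalized.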
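Note: each compound tested at 20 µM final concentration.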

| Inhibition percent | SMILES |
| --- | --- |
| -2.77 | Cc1nccn1Cc1ccccc1C(=O)N1C[C@@H](c2cccc(F)c2)[C@@]2(CCCCC(=O)N2)C1 [BDH_32372714] |
| 0.44 | COCC(=O)N1CCC(C)(C(=O)N2CCCC2c2ccnc(-c3cccc(Cl)c3)n2)CC1 (stereo not shown) [BDH_32373816] |
| 1.12 | O=C(c1ccccc1Cn1ccnc1)N1CCOCC2(C1)CN(c1ccc(Cl)cc1)C(=O)O2 (stereo not shown) [BDH_32374184] |
| 6.08 | O=C(COc1ncnc2ccccc12)N1CCC[C@@]2(C[C@@H](Oc3ccc(F)c(Cl)c3)CO2)C1 [BDH_33516387] |
| -5.26 | Cc1c[nH]c(-c2nccnc2CC2CCCN(C(=O)c3ccnc(Cc4cccc(F)c4)c3)C2)n1 (stereo not shown) [BDH_33521378] |
| -1.03 | COc1cccc([C@@H]2C[C@]3(C)NC(=O)CCCC[C@@H]3N2CC(=O)Nc2ccc(N3CCCC3)cc2)c1 [BDH_33614614] |
| -1.00 | Cc1nc2ccc(NC(=O)CN3C[C@@H](c4cc(F)cc(F)c4)[C@@]4(CCCCC(=O)N4)C3)cc2[nH]1 [BDH_33616136] |
| -0.00541 | Cc1n[nH]c(C)c1NC(=O)CN1C[C@@H](c2cc(F)cc(F)c2)[C@@]2(CCCCC(=O)N2)C1 [BDH_33616713] |
| -2.26 | C[C@]12C[C@@H](c3ccccc3)N(CC(=O)Nc3ccc4c(c3)OCCO4)[C@H]1CCCCCN2 [BDH_33617257] |
| -1.52 | CC(=O)N[C@H]1C[C@@H](C(=O)N(C)C)N(CC(=O)Nc2ccc3c(c2)OCCO3)[C@H]1c1ccccc1 [BDH_33617336] |

Same assay, conditions: primary screen of the Asinex library, sheet "Sargen output Asinex library", one well per compound

| Inhibition percent [%] | SMILES |
| --- | --- |
| -4.00 | O=C(c1ccccc1CN1CCOCC1)N1CCOCC(Cc2ccc3ccncc3c2)C1 (stereo not shown) [BDH_32372076] |
| -1.24 | COc1ccc(C2(C(=O)N3CCC4(CC3)CC(Oc3ccccc3F)CO4)CCOCC2)cc1 (stereo not shown) [BDH_32372513] |
| -2.49 | O=C1CCCN1CCOc1ccccc1C(=O)N1CCCC(Cc2cn3ccnc3cn2)CC1 (stereo not shown) [BDH_32372856] |
| 4.71 | CNC(=O)c1cccc(C2CN(C(=O)c3ccc(OCc4ccccn4)c(OC)c3)CCN2C)c1 (stereo not shown) [BDH_32373002] |
| -6.35 | Cn1cc(-c2cc(C(=O)N3CCCC(c4cccc(-c5cccc(C(N)=O)c5)n4)C3)ccn2)cn1 (stereo not shown) [BDH_32374050] |
| -4.02 | Cn1ccc(C(=O)Nc2ccccc2C(=O)N2CCC3(CN(Cc4ccccc4)C(=O)O3)C2)n1 (stereo not shown) [BDH_32374198] |
| -4.50 | COCC(=O)N1CCC(C)(C(=O)N2CCC[C@]3(C[C@@H](Oc4cccc(F)c4)CO3)C2)CC1 [BDH_32375031] |
| 3.55 | C[C@@]12C[C@H]3[C@H](Cc4ccccc4)N[C@@H]1CCCC[C@@H]2N3C(=O)c1ccnc(Cc2ccccc2)c1 [BDH_33392602] |
| 6.38 | COc1cccc(-c2cc(C(=O)N3CCC[C@@]4(C[C@@H](Oc5cccc(Cl)c5)CO4)C3)[nH]n2)c1 [BDH_33516566] |
| 4.74 | O=C(c1cc(-c2cccc(F)c2)no1)N1CCC[C@@]2(C[C@@H](Oc3ccccc3F)CO2)C1 [BDH_33517958] |
| -0.37 | COc1ccc([C@H]2CN(C)[C@@H]3CCN(C(=O)c4ccnc(Cc5ccccc5OC)c4)C[C@H]23)cc1 [BDH_33520255] |
| -4.74 | COc1ccccc1Cc1ccc(C(=O)N2CCCC2c2cncc(-c3nc(C)c[nH]3)n2)cn1 (stereo not shown) [BDH_33521296] |
| -1.25 | COc1ccccc1Cc1ccc(C(=O)N2CCCC2c2cccc(-c3cncn3C)n2)cn1 (stereo not shown) [BDH_33521317] |
| -2.90 | Cc1c[nH]c(-c2cncc(C3CCCN(C(=O)c4ccnc(Cc5cccc(F)c5)c4)C3)n2)n1 (stereo not shown) [BDH_33521385] |
| -0.17 | NC(=O)c1cc(CC2CCCN(C(=O)c3ccnc(Cc4ccccc4)c3)CC2)ncn1 (stereo not shown) [BDH_33521416] |
| 1.71 | COc1ccc([C@@H]2C[C@]3(C)NC(=O)CCC[C@@H]3N2CC2(O)CCN(c3cccc(OC)c3)CC2)cc1 [BDH_33611075] |
| 1.72 | COc1ccc([C@@H]2[C@H]3CCCC[C@@]3(O)CCN2CC(=O)Nc2ccc(N3CCOCC3)cc2)cc1 [BDH_33614948] |
| -1.75 | COc1cccc([C@@H]2C[C@]3(C)NC(=O)CCCC[C@@H]3N2CC(=O)Nc2ccc3[nH]c(=O)[nH]c3c2)c1 [BDH_33615500] |
| -1.45 | CC(=O)N[C@@H]1C[C@@H](C(=O)N(C)C)N(CC(=O)Nc2ccc3[nH]c(=O)[nH]c3c2)[C@H]1c1ccccc1 [BDH_33615574] |
| -1.86 | CC(=O)N1CCN(CC(=O)NCCc2nc3ccccc3[nH]2)CC1c1ccc(C(F)(F)F)cc1 (stereo not shown) [BDH_33616082] |
| -2.04 | C[C@]12C[C@@H](Cc3ccccc3)N(CC(=O)NCCc3nc4ccccc4[nH]3)[C@H]1CCCC(=O)N2 [BDH_33616100] |
| -1.15 | CC(=O)N[C@H]1C[C@@H](C(=O)N(C)C)N(CC(=O)Nc2cccc(C(F)(F)F)c2)[C@H]1c1ccccc1 [BDH_33616368] |
| -0.29 | CC(=O)N[C@@]12CN(CC(=O)Nc3cccc(C(F)(F)F)c3)CC[C@@H]1[C@@H](c1ccccc1)N(C)C2 [BDH_33616433] |
| -2.26 | NC(=O)C1CN(Cc2ccccc2)CCN1CC(=O)Nc1ccccc1C(F)(F)F (stereo not shown) [BDH_33617130] |
| -1.20 | CC(=O)N[C@@]12CN(C)CC[C@@H]1[C@@H](c1ccccc1)N(CC(=O)Nc1ccc3c(c1)OCCO3)C2 [BDH_33617398] |
| -0.000394 | CCn1c(=O)oc2cc(NC(=O)CN3C[C@]4(NC(C)=O)CN(C)CC[C@@H]4[C@H]3c3ccccc3)ccc21 [BDH_33617644] |
| 1.66 | COc1cccc([C@@H]2C[C@]3(C)NC(=O)CCCC[C@@H]3N2CC(=O)Nc2ccc3c(c2)nc(C)n3C)c1 [BDH_33617989] |

Same assay, conditions: primary screen of the Asinex library, sheet "Sargen output Asinex library", one well per compound, Batch Ref. 1

| Inhibition percent [%] | SMILES |
| --- | --- |
| 0.77 | CC1(C(=O)N2CCOCC(Cc3ccc4ncccc4c3)C2)CCN(C(=O)c2ccccc2)CC1 (stereo not shown) [BDH_32372082] |
| 0.40 | CN1C(=O)C2(CCN(C(=O)C3(c4ccccc4)CCOCC3)CC2)CC1Cc1ccccc1 (stereo not shown) [BDH_32374590] |
| -1.59 | C[C@]12C[C@@H](Cc3ccccc3)N(C(=O)c3cccc(CN4CCCC4=O)c3)[C@H]1CCCC(=O)N2 [BDH_32374892] |
| -0.88 | CC(C)CN1C(=O)C2(CCN(C(=O)Cn3cccnc3=O)CC2)CC1Cc1ccc(F)cc1 (stereo not shown) [BDH_33517008] |
| -3.44 | COc1ccccc1Cc1ccc(C(=O)N2CCCC2c2cncc(-c3nccn3C)n2)cn1 (stereo not shown) [BDH_33521295] |
| 0.21 | COc1ccccc1Cc1ccc(C(=O)N2CCC(c3cccc(-c4cncn4C)n3)CC2)cn1 [BDH_33521315] |
| -0.09 | CNC(=O)c1cnn2c(C3CCCN(C(=O)c4ccnc(Cc5cccc(F)c5)c4)C3)ccnc12 (stereo not shown) [BDH_33521351] |
| -2.61 | Cn1ccnc1-c1nccnc1C1CCN(C(=O)c2ccnc(Cc3cccc(F)c3)c2)CC1 [BDH_33521386] |
| -0.87 | NC(=O)c1cnn2c(C3CCCCN3C(=O)c3ccnc(Cc4ccccc4)c3)ccnc12 (stereo not shown) [BDH_33521422] |
| -0.23 | CNC(=O)c1cnn2c(C3CCCCN3C(=O)c3ccnc(Cc4ccccc4F)c3)ccnc12 (stereo not shown) [BDH_33521663] |
| 0.97 | O=C(c1ccnc(Cc2ccccc2F)c1)N1CCC(Cc2nccnc2-c2ncc[nH]2)CC1 [BDH_33521693] |
| 0.73 | Cc1c[nH]c(-c2cncc(CC3CCN(C(=O)c4ccc(Cc5ccccc5F)nc4)CC3)n2)n1 [BDH_33521764] |
| 0.17 | COc1ccccc1Cc1cc(C(=O)N2CCCC2c2cncc(-c3nc(C)c[nH]3)n2)ccn1 (stereo not shown) [BDH_33522145] |
| 6.35 | COc1ccccc1Cc1cc(C(=O)N2CCC(c3nccnc3-c3nc(C)c[nH]3)CC2)ccn1 [BDH_33522161] |
| 2.32 | COc1cccc(N2CCC(O)(CN3C[C@@H](c4cccc(F)c4)[C@@]4(CCCC(=O)N4)C3)CC2)c1 [BDH_33611042] |
| -0.28 | COc1ccc(N2CCN(CC3(O)CCN(c4cccc(C)c4)CC3)C(C(N)=O)C2)cc1 (stereo not shown) [BDH_33612322] |
| 0.09 | COc1cccc([C@@H]2C[C@]3(C)NC(=O)CCCC[C@@H]3N2CC(=O)NCCc2nc3ccccc3[nH]2)c1 [BDH_33615965] |
| 1.14 | CC(=O)N[C@@]12CN(CC(=O)Nc3ccc4nc(C)[nH]c4c3)CC[C@@H]1[C@@H](c1ccccc1)N(C(C)=O)C2 [BDH_33616134] |
| 6.38 | Cc1nc2ccc(NC(=O)CN3CC[C@@]4(C)[C@@H]3CCCCC(=O)N4Cc3ccc(F)cc3)cc2[nH]1 [BDH_33616216] |
| 6.90 | C[C@]12C[C@@H](Cc3ccccc3)N(CC(=O)Nc3cccc(C(F)(F)F)c3)[C@H]1CCCC(=O)N2 [BDH_33616434] |
| 1.15 | Cc1nc2cc(NC(=O)CN3C[C@@H](c4cc(F)cc(F)c4)[C@@]4(CCCCC(=O)N4)C3)ccc2n1C [BDH_33617993] |
| 4.04 | CC(=O)N[C@@]12CN(C)CC[C@@H]1[C@@H](c1ccccc1)N(CC(=O)Nc1ccc3c(c1)nc(C)n3C)C2 [BDH_33618117] |
| 4.89 | COc1ccc([C@@H]2C[C@]3(C)NC(=O)CCC[C@@H]3N2CC(=O)Nc2ccc3c(c2)nc(C)n3C)cc1 [BDH_33618124] |
| 1.43 | COc1ccc(C)c(NC(=O)CN2CC[C@@]3(NC(C)=O)CN(C(C)=O)[C@H](c4ccccc4)[C@H]3C2)c1 [BDH_33618460] |
